Test results published in paper PMC4559561, “Radioiodinated PARP1 tracers for glioblastoma imaging” (EJNMMI Research, 2015).
“And” between values parts separate entries of the source, which are not always exact repeats. Equal entries are not always repeated. Values belong to the molecule of their own block, whether it stands above or below them.

Legend:
[1] = Plasma protein fraction by rapid equilibrium dialysis in mouse serum; type: in vitro ADME; settings: 10 μM compound in mouse serum vs PBS, 37 °C, read-out: Plasma Free Fraction
Method: The plasma protein fraction was determined using the Rapid Equilibrium Dialysis Device System (Life Technologies, Grand Island, NY) according to the manufacturer’s protocol. Membrane dialysis was performed with 10 μM of compound in mouse serum (500 μL) on one side of the membrane and PBS (750 μL) on the other side. The system was sealed with parafilm and incubated for 4 h at 37 °C on an orbital shaker set to 250 rpm. Thereafter, 400 μL of solution was taken from both sides, and samples were treated twice with an equal amount of AcN and vortexed to remove protein before HPLC analysis. After injection (100 μL), the I-PARPi peaks from each sample were then integrated and the protein bound fraction was determined. The data was analyzed using Prism 6.0c.

[2] = test system: U87 MG subcutaneous tumors; experiment: In vivo blocking study: PARPi-FL uptake in tumors, ex vivo epifluorescence imaging; design: species or system mouse
From the text: One hour post injection, the mice were sacrificed and the tumors were resected and imaged with the IVIS spectrum fluorescence imaging system (PerkinElmer, Waltham, MA) using Living Image 4.4 software. The tumors were also imaged microscopically with the 5Live fluorescent confocal microscope using the 488 nm laser for PARPi-FL excitation.

[3] = molecular target: T1, PARP1 high specific activity (HSA) enzyme (Homo sapiens, UniProt P09874); experiment: PARP-1 IC50 determination, commercial colorimetric assay (Trevigen); type: biochemical; settings: 0.5 U PARP1 HSA enzyme, 10 min, histone-coated plates, triplicate
T1 construct: purchased Trevigen, Gaithersburg, MD
T1 sequence (P09874 whole entry): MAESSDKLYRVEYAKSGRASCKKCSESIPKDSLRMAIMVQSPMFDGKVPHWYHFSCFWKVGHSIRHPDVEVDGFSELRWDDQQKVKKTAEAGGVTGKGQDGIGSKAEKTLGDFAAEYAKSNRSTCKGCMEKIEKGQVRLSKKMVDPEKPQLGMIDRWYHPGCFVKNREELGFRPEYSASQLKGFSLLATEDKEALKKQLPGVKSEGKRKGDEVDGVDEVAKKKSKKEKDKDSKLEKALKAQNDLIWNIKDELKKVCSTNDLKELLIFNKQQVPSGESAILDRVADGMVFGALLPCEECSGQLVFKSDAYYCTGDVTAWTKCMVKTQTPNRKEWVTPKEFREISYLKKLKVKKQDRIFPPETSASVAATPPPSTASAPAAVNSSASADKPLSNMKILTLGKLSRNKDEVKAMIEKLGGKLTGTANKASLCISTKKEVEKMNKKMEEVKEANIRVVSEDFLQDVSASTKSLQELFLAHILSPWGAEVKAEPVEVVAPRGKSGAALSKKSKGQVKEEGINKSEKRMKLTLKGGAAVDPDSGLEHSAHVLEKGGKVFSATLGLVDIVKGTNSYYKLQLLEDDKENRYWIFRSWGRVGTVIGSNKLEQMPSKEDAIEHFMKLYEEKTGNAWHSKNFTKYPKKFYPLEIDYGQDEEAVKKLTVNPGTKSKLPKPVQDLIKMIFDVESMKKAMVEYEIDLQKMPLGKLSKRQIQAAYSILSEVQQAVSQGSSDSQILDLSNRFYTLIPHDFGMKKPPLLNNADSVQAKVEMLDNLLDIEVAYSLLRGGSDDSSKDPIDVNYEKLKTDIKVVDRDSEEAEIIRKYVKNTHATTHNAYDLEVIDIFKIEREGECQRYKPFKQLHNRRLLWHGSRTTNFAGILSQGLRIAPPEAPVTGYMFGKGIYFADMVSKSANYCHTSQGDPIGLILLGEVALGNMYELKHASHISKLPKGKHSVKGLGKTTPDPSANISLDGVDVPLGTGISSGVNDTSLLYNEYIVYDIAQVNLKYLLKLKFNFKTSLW
Method: A commercially available colorimetric assay (Trevigen, Gaithersburg, MD) was used to measure PARP-1 activity in vitro in the presence of varying concentrations of the different iodo-[…]. […] All experiments were carried out in triplicate. […] All reaction mixtures were adjusted to a final volume of 50 μl, and a final concentration of 1 % DMSO in assay buffer. The remainder of the assay was performed according to the manufacturer's instructions. PARP1 activity was measured by absorbance at 450 nm in each well using a SpectraMax M5 spectrophotometer with SoftMax Pro software (Molecular Devices, Sunnyvale, CA).

[4] = Chemical hydrophobicity index (CHI) by reverse phase HPLC, Log P derived from CHI; type: physicochemical; settings: for CHI (chromatographic hydrophobicity index): from HPLC retention time against standards
Method: Chemical hydrophobicity indices (CHIs) were measured using procedures developed previously. Briefly, reverse phase HPLC was used to measure the retention times of a set of standards with known CHI. A standard curve was then created to calculate the CHIs of all iodo-PARPi based on the HPLC retention time.

[5] = test system: U87 MG cells; experiment: In vitro blocking study: competitive inhibition of PARPi-FL uptake; type: cell-based, human; settings: 20 min
Method: U87 MG cells were seeded into a 96-well plate in a concentration of 1 × 10^4 cells per well. After 24 h, the cells were incubated with either the fluorescent PARP1 inhibitor PARPi-FL (250 nM) alone or with one of the iodo-PARPi inhibitors at a 100-fold higher concentration (25 μM) for 20 min. […] All incubation solutions also included Hoechst 33342 nuclear stain (Sigma-Aldrich, St. Louis, MO). The cells were washed twice with media and once with PBS for 5 min each and imaged on an LSM 5Live confocal microscope (Zeiss, Oberkochen, Germany). All wells were imaged with the DAPI filter for the Hoechst staining and the FITC filter for the PARPi-FL staining. The DAPI and FITC channels were co-registered, and the green fluorescence in the location of the Hoechst staining was quantified for each image. The percent reduction in PARPi-FL uptake was calculated based on the level of fluorescence intensity seen in each image and normalized to the cells receiving no iodo-PARPi inhibitor. Experiments were performed in triplicate.

[6] = test system: U87 MG subcutaneous xenografts; experiment: Biodistribution in U87 MG xenograft mice; type: in vivo, mouse; settings: U87 MG tumor-bearing mice, 2 h post intravenous injection
Method: (§1) Biodistribution experiments were conducted on female nude mice (8–10 weeks old and 20–25 g in weight, n = 21) bearing U87 MG or U251 MG subcutaneous xenografts. The radiolabeled small molecule preparation ([…] of [^131I]-I2-PARPi in 200 μL of a solution 90 % PBS 10 % PEG300) was administrated via the lateral tail vein. To determine the optimal specific activity to achieve the highest tumor to organ ratio, various specific activities were tested (5, 50, and 250 mCi/μmol) in mice bearing U87 MG tumors. The compound was allowed to circulate for 2 h post injection at which time the mice were sacrificed and organs were harvested (n = 3). After determining the optimal specific activity, the optimal time for imaging was determined by testing the drug distribution in nude mice bearing U87 MG tumors at different time points. The drug was allowed to circulate for various times (1, 2, and 6 h), after which the mice were sacrificed (n = 3). The radioactive content in the tissue of interest (blood, tumor, muscle, bone, liver, spleen, kidney, heart, lung, pancreas, brain, skin, small intestine, large intestine, stomach, tail, thyroid, and feces) was measured on a Wizard 2470 Automatic Gamma Counter and the tissue-associated activity was calculated as the mean %ID/g.

[7] = Blood half-life by serial blood sampling; type: in vivo, mouse; settings: healthy athymic nude mice, 50 μCi i.v.
Method: Blood half-life was determined by measuring the activity in serial blood samplings. Specifically, healthy female nude mice (8–10 weeks old, 20–25 g in weight, n = 3) were injected via the tail vein with 50 μCi [^131I]-I2-PARPi in 200 μL of solution PBS/PEG300 (10:1). The blood was sampled from the saphenous vein at 5, 15, 30, 60, 120, and 240 min post injection. The blood was weighed and radioactivity was measured on a Wizard 2470 Automatic Gamma Counter (Perkin Elmer, Waltham, MA). Measurements in counts per minute were calculated as the mean %ID/g. The blood half-life was calculated using Prism 6.0c (GraphPad Software, La Jolla, CA).

[8] = In vitro whole blood stability; type: in vitro ADME; settings: mouse blood, 37 °C, radio-HPLC
Method: The in vitro stability was assessed by incubating 6 μCi [^131I]-PARPi in mouse blood for 0 to 60 min at 37 °C. At baseline, 15, 30, and 60 min, the samples were immediately placed on ice and mixed 1:1 with a solution of AcN/DMSO (250 μL) and then vigorously vortexed for 30 s to precipitate out serum protein. The sample was centrifuged at 3000 RCF for 3 min at 4 °C, and the supernatant was collected. This procedure was repeated three times, and the combined supernatants were analyzed by HPLC equipped with radioactive detector (Shimadzu, Kyoto, Japan), collecting samples every 30 s. Radioactivity of each fraction was measured on a Wizard 2470 Automatic Gamma Counter (Perkin Elmer, Waltham, MA), and the blood stability was analyzed using Prism 6.0c (GraphPad Software, La Jolla, CA).

[9] = test system: U251 MG subcutaneous xenografts; experiment: Biodistribution in U251 MG xenograft mice; type: in vivo, mouse; settings: 2 h after tracer injection
Method: as §1

fraction unbound at 4 h, 10 μM [1]: 0.096 ± 0.015
SMILES: O=C(c1cccc(I)c1)N1CCN(C(=O)c2cc(Cc3n[nH]c(=O)c4ccccc34)ccc2F)CC1 [I1-PARPi, 4-(4-fluoro-3-(4-(3-iodobenzoyl)piperazine-1-carbonyl)benzyl)phthalazin-1(2H)-one]

SMILES: O=C(c1ccc(I)cc1)N1CCN(C(=O)c2cc(Cc3n[nH]c(=O)c4ccccc34)ccc2F)CC1 [I2-PARPi, 4-(4-fluoro-3-(4-(4-iodobenzoyl)piperazine-1-carbonyl)benzyl)phthalazin-1(2H)-one]
reduction of PARPi-FL tumor fluorescence in vivo ([2]; I2-PARPi 125 mg/kg 30 min before PARPi-FL 2.5 mg/kg, tumors resected 1 h post injection, vs PARPi-FL alone): 78 ± 4%
fraction unbound at 4 h, 10 μM [1]: 0.115 ± 0.001

fraction unbound at 4 h, 10 μM [1]: 0.07 ± 0.001
IC50 [3]: 34 ± 3 nM
CHI (chromatographic hydrophobicity index) [4]: 66.7
SMILES: O=C(Cc1cccc(I)c1)N1CCN(C(=O)c2cc(Cc3n[nH]c(=O)c4ccccc34)ccc2F)CC1 [I3-PARPi, 4-(4-fluoro-3-(4-(2-(3-iodophenyl)acetyl)piperazine-1-carbonyl)benzyl)phthalazin-1(2H)-one]

fraction unbound at 4 h, 10 μM [1]: 0.05 ± 0.003
IC50 [3]: 74 ± 5 nM
CHI (chromatographic hydrophobicity index) [4]: 66.7
SMILES: O=C(Cc1ccc(I)cc1)N1CCN(C(=O)c2cc(Cc3n[nH]c(=O)c4ccccc34)ccc2F)CC1 [I4-PARPi, 4-(4-fluoro-3-(4-(2-(4-iodophenyl)acetyl)piperazine-1-carbonyl)benzyl)phthalazin-1(2H)-one]

fraction unbound at 4 h, 10 μM [1]: 0.078 ± 0.014
IC50 [3]: 107 ± 4 nM
CHI (chromatographic hydrophobicity index) [4]: 71.6
SMILES: O=C(CCc1cccc(I)c1)N1CCN(C(=O)c2cc(Cc3n[nH]c(=O)c4ccccc34)ccc2F)CC1 [I5-PARPi, 4-(4-fluoro-3-(4-(3-(3-iodophenyl)propanoyl)piperazine-1-carbonyl)benzyl)phthalazin-1(2H)-one]

fraction unbound at 4 h, 10 μM [1]: 0.047 ± 0.005
IC50 [3]: 47 ± 5 nM
CHI (chromatographic hydrophobicity index) [4]: 71.6
SMILES: O=C(CCc1ccc(I)cc1)N1CCN(C(=O)c2cc(Cc3n[nH]c(=O)c4ccccc34)ccc2F)CC1 [I6-PARPi, 4-(4-fluoro-3-(4-(3-(4-iodophenyl)propanoyl)piperazine-1-carbonyl)benzyl) phthalazin-1(2H)-one]

logPCHI ([4]; derived from CHI by equation): 0.8
SMILES: O=C(c1cc(Cc2n[nH]c(=O)c3ccccc23)ccc1F)N1CCN(C(=O)C2CC2)CC1 [Olaparib]
reduction of PARPi-FL uptake (fluorescence signal) ([5]; 25 µM): 73 ± 11%
reduction of PARPi-FL uptake (fluorescence signal) ([5]; PARPi-FL 250 nM, inhibitor 25 μM (100-fold), U87 MG cells): 73 ± 10%

SMILES: Cc1cc(C)n2c1C=C1C=CC(CCC(=O)N3CCN(C(=O)c4cc(Cc5n[nH]c(=O)c6ccccc56)ccc4F)CC3)=[N+]1[B-]2(F)F [PARPi-FL, reference compound]
tumor fluorescence, average radiant efficiency ([2]; PARPi-FL 2.5 mg/kg alone): 2.03 × 10^8 ± 1.84 × 10^7

uptake in brain [6]: 0.007 ± 0.002 %ID/g
uptake in muscle [6]: 0.04 ± 0.02 %ID/g
uptake in tumor [6]: 0.50 ± 0.08 %ID/g
alpha blood half-life [7]: 14.3 min
beta blood half-life [7]: 94.6 min
share of alpha phase [7]: 96.25%
share of beta phase [7]: 3.75%
weighted blood half-life t1/2(weighted) [7]: 17.1 min
uptake in liver [9]: 2.35 ± 0.57 %ID/g and 2.4 ± 0.6 %ID/g
uptake in thyroid [9]: 0.24 ± 0.06 %ID/g
uptake in tumor [9]: 0.43 ± 0.06 %ID/g
SMILES: O=C(c1ccc([131I])cc1)N1CCN(C(=O)c2cc(Cc3n[nH]c(=O)c4ccccc34)ccc2F)CC1 [[^131I]-I2-PARPi]
in vitro blood stability [8]: stability of the drug over the course of 120 min
uptake in brain [9]: 0.01 ± 0.00 %ID/g and 0.011 ± 0.003 %ID/g
uptake in muscle [9]: 0.03 ± 0.01 %ID/g and 0.033 ± 0.012 %ID/g
